Measurements from the OPERA property sets (Mansouri et al. 2018).

Conditions: for log10 BCF / log10 biotransformation half-life (days): fish

Compound	boiling point [°C]	melting point [°C]	also measured
O=C(c1ccccc1)C(Cl)Cl	249	20.5	–
CC(C)NCc1ccccc1	200	–	–
NC(=O)c1ccccc1C(N)=O	–	222	–
COc1ccc([C@@H]2Sc3ccccc3N(CCN(C)C)C(=O)[C@@H]2OC(C)=O)cc1	–	210	–
CCOC(=O)CC(=O)C(C)C	173	-9	–
C(=Nc1ccccc1)c1ccccc1	310	54	–
Oc1ccc2c(c1)[C@@]13CCCC[C@H]1[C@@H](C2)N(CCc1ccccc1)CC3	–	244	–
CC=CCCCCC	124	-80	log10 vapour pressure (mmHg): 1.21
C=Cc1ccccc1Br	209	-52.5	–
C=CC(C)CCCC (stereo not given)	111	–	–
CC(C)(C)c1cc(-n2nc3ccc(Cl)cc3n2)c(O)c(C(C)(C)C)c1	–	–	ready biodegradability: not readily biodegradable; log10 BCF: 3.57; log10 biotransformation half-life (days): 0.72
Cc1c(NC(=O)c2cccnc2)c(=O)n(-c2ccccc2)n1C	–	253	–
ICCCI	–	-20	–
CCCCCCCCCCCC=O	–	44.5	log10 vapour pressure (mmHg): -1.82
N#CC(Br)(Br)C(N)=O	–	124	log10 vapour pressure (mmHg): -3.05; ready biodegradability: not readily biodegradable
CC=C(C)CC	69	-137	log10 vapour pressure (mmHg): 2.2
CC(F)(F)C(F)(F)F	-17.4	–	log10 vapour pressure (mmHg): 3.54
CC(=O)c1ccc(C)c(C)c1	246	-3	–
O=C1CC(C(=O)O)=CO1	–	164	–
FC(F)Br	-15.5	-145	–
COc1ccc2[nH]cc(CCNC(C)=O)c2c1	–	117	–
c1ccc(COP(OCc2ccccc2)OCc2ccccc2)cc1	–	–	ready biodegradability: readily biodegradable
CC(C)NCC(O)c1ccc(O)c(O)c1 (stereo not given)	–	170	–
CC(=CC(=O)c1ccccc1)c1ccccc1	342	–	–

Compound	boiling point [°C]	melting point [°C]	also measured
O[C@@H]1C[C@H]2CC[C@@H]1C2	176	133	–
O=C(O)COc1ccc(Cl)c(Cl)c1	–	139	–
CC(=O)Nc1ccc(F)cc1	–	154	log10 Koc (L/kg): 1.48
Cc1ccc(CO)c(C)c1	232	22	–
O=C(OCC(=O)N1CCCCCC1)c1ccccc1	–	108	–
Cc1c(C2(c3cc(C(C)C)c(O)c(Br)c3C)OS(=O)(=O)c3ccccc32)cc(C(C)C)c(O)c1Br	–	201	–
CCOC(=O)CCc1ccccc1	247	–	–
CC(C)(C)c1cc(N=Nc2ccccc2[N+](=O)[O-])c(O)c(C(C)(C)C)c1	–	–	ready biodegradability: not readily biodegradable
CCOc1ccc(N)c(N)c1	295	71.5	–
Cc1cc(C)c(O)cc1O	276	126	–
CCOC(=O)C(c1c(O)c2ccccc2oc1=O)c1c(O)c2ccccc2oc1=O	–	154	–
O=[N+]([O-])c1ccc(O/N=C/c2cc(Br)c(O)c(Br)c2)c([N+](=O)[O-])c1	–	196	–
CCCCCCC(O)CCCC (stereo not given)	229	-3.5	–
CCCCCCCCCCCCCCCCCCCCCCCCCCCCCCCCCCCCCC	512	–	ready biodegradability: readily biodegradable
CC1CC(=O)CC(C)(C)C1 (stereo not given)	189	–	ready biodegradability: not readily biodegradable
CCCCCCCCOC(=O)CC	228	-42.6	–
Cc1ccc(-c2ccc(C)c(C)c2)cc1C	–	–	log10 biotransformation half-life (days): -0.01
Cc1ncc(CSSCc2cnc(C)c(O)c2CO)c(CO)c1O	–	219	–
COC(=O)c1c(C)cc(OC(=O)c2c(C)cc(O)c(C=O)c2O)c(C)c1O	–	195	–
COc1cc(Cl)c(OC)cc1Cl	268	134	log10 Koc (L/kg): 3.1; log10 vapour pressure (mmHg): -2.52
O=[N+]([O-])c1ccc(Oc2c(Cl)cc(Cl)cc2Cl)cc1	–	106	log10 Koc (L/kg): 3.9; ready biodegradability: not readily biodegradable; log10 BCF: 3.31; log10 biotransformation half-life (days): 0.75
COc1ccccc1C=C(C(=O)O)c1ccccc1	–	158	–
Clc1nc(Cl)c(Cl)c(Cl)c1Cl	–	126	log10 vapour pressure (mmHg): -1.85
ClCC(Cl)(Cl)Cl	130	-70.2	log10 Henry constant (atm·m³/mol): -2.6; log10 vapour pressure (mmHg): 1.08

Compound	boiling point [°C]	melting point [°C]	also measured
CC(C)(C)OOC(C)(C)c1ccc(C(C)(C)OOC(C)(C)C)cc1	–	–	ready biodegradability: not readily biodegradable
CCCC(C)=C(C)C	122	-115	log10 vapour pressure (mmHg): 1.26
CCCCCCCCCCOc1ccc(C(=O)O)cc1	–	114	–
CCCCCCCCCCCCCCCCCCS	360	30	log10 vapour pressure (mmHg): -6.4; ready biodegradability: not readily biodegradable
C=C(C)C	-6.9	-140	log10 Henry constant (atm·m³/mol): -0.662; log10 vapour pressure (mmHg): 3.36
NCCCCCO	222	38.5	–
C#CC(C)(CC)OC(N)=O (stereo not given)	–	55.8	–
NNc1ccc(S(=O)(=O)O)cc1	–	286	–
CC[C@@H](N)CO	178	-2	–
CN1CCc2c(c3ccccc3n2Cc2ccccc2)C1	–	95	–
CCOc1cccc(C)c1	192	–	–
CCOCCOC(C)(C)C	148	–	–
CC(O)CBr (stereo not given)	146	–	–
CS(=O)(=O)F	124	–	log10 vapour pressure (mmHg): 1.04
CC(=O)c1cc2c(cc1C)C(C)(C)C(C)CC2(C)C (stereo not given)	–	54.5	–
CC(=O)F	20.8	-84	–
COC(=O)C=CC(=O)OC	–	–	ready biodegradability: readily biodegradable
Oc1ccc(Br)cc1	–	–	log10 Koc (L/kg): 2.41; ready biodegradability: not readily biodegradable; log10 BCF: 1.17
CC#CCCCCCCCC	204	-30.1	–
O=C(Nc1ccccc1)c1ccccc1O	–	136	–
OC1c2ccccc2-c2ccccc21	–	154	–
Nc1ccc(S(=O)(=O)c2ccc([N+](=O)[O-])cc2)cc1	–	170	–
O=C(Nc1cccc2ccccc12)c1ccccc1C(=O)[O][Na]	–	–	log10 Koc (L/kg): 3.34
CC(=O)CC1CCCCN1 (stereo not given)	195	–	–

Compound	boiling point [°C]	melting point [°C]	also measured
COC(=O)C(Br)CBr (stereo not given)	206	–	–
CCOB(OCC)OCC	120	-84.8	log10 vapour pressure (mmHg): 1.22
CC(C)(COCc1cccc(Oc2ccccc2)c1)c1ccc(OC(F)(F)Br)cc1	–	–	log10 vapour pressure (mmHg): -8.23
CN(CC(=O)N1CCOCC1)Cc1c(Cl)cccc1NC(=O)c1ccccc1	–	123	–
Oc1cc2ccccc2cc1O	–	162	–
Nc1cc2c(cc1Cl)C(=O)c1ccccc1C2=O	–	282	–
CON=O	-12	-16	–
C1CSCCN1	175	–	–
CC[C@H](c1ccc(O)cc1)[C@@H](CC)c1ccc(O)cc1	–	186	–
CC(=O)OC[C@H]1O[C@@H](n2ncc(=O)[nH]c2=O)[C@H](OC(C)=O)[C@@H]1OC(C)=O	–	100	–
Nc1ccc([N+](=O)[O-])cc1N	–	200	–
CN(C)C(=O)C(c1ccccc1)c1ccccc1	–	135	log10 Koc (L/kg): 2.32; log10 vapour pressure (mmHg): -7.52
CCCC(=O)OC	103	-85.8	log10 Henry constant (atm·m³/mol): -3.69; log10 vapour pressure (mmHg): 1.51
CC(C)(C)CCCl	115	–	–
NS(=O)(=O)c1ccc(SCCCCCO)cc1	–	103	–
Cc1cccc[n+]1[O-]	–	49	–
NC(=O)Nc1ccccc1F	–	–	log10 Koc (L/kg): 1.32
CC1CCCCCC1=O (stereo not given)	185	–	–
O=C(O)c1ccccc1Oc1ccccc1	355	113	–
CCCCC(C(C)=O)C(=O)OCC (stereo not given)	222	–	–
O=C1Nc2ccc(Br)cc2C1=O	–	250	–
Cl/C=C/Cl	–	–	ready biodegradability: not readily biodegradable
CC(C)[C@@H](C)C(=O)O	192	-1.5	–
CC(C)(C)CC(=O)O	190	6.5	–

Compound	boiling point [°C]	melting point [°C]	also measured
CCCCCC(C)(C)C	133	-113	log10 biodegradation half-life (days): 0.778; log10 vapour pressure (mmHg): 1.03
Cc1cc(C)c(C)c(O)c1	230	93.5	log10 Koc (L/kg): 3.61; log10 vapour pressure (mmHg): -2.42
O=C(O)C(F)(F)C(F)(F)C(F)(F)C(F)(F)C(F)(F)C(F)(F)C(F)(F)C(F)(F)C(F)(F)C(F)(F)C(F)(F)C(F)(F)C(F)(F)F	–	–	ready biodegradability: not readily biodegradable
CCCCCCCCCCCCCCCCI	–	22	log10 vapour pressure (mmHg): -4.78
Nc1ccc(O)c([N+](=O)[O-])c1	–	126	–
CCC1=C(C[C@@H]2NCCc3cc(OC)c(OC)cc32)C[C@H]2c3cc(OC)c(OC)cc3CCN2C1	–	95	–
CCCCC[C@H](O)/C=C/[C@@H]1[C@@H](C/C=C\CCCC(=O)O)[C@@H](O)C[C@H]1O	–	30	–
CCN(N)c1ccccc1	237	–	–
COC(=O)c1sccc1S(=O)(=O)NC(=O)Nc1nc(C)nc(OC)n1	–	176	log10 Koc (L/kg): 1.45; log10 vapour pressure (mmHg): -9.89
CC1CC(C)(C)CC1=O (stereo not given)	160	-25.6	–
CCC(c1ccc(O)c(C)c1)C(CC)c1ccc(O)c(C)c1 (stereo not given)	–	145	–
NS(=O)(=O)c1cc(Cl)c(Cl)c(S(N)(=O)=O)c1	–	229	–
CC(Oc1cc(Cl)c(Cl)cc1Cl)C(=O)O (stereo not given)	–	182	log10 Koc (L/kg): 1.75; ready biodegradability: not readily biodegradable
O=c1cccc2n1CC1CNCC2C1 (stereo not given)	–	152	–
CC(=O)O[C@H]1C[C@@H]2CC[C@@H]3[C@H](CC[C@@]4(C)[C@H]3C[C@H]([N+]3(C)CCCCC3)[C@@H]4OC(C)=O)[C@@]2(C)C[C@@H]1N1CCCCC1.[Br-]	–	228	–
CCN1C[C@]2(COC)CCC(O)[C@]34C1C(O)([C@@H](OC)[C@H]23)C1(O)C[C@H](OC)[C@H]2C[C@@H]4[C@@H]1[C@H]2OC (stereo not given in full)	–	214	–
CCCN(CCC)c1c([N+](=O)[O-])cc(S(N)(=O)=O)cc1[N+](=O)[O-]	–	141	log10 Koc (L/kg): 3.4; ready biodegradability: not readily biodegradable
O=C([O-])CF.[Na+]	–	201	–
CC#Cc1cc(C)nc(Nc2ccccc2)n1	–	133	log10 vapour pressure (mmHg): -6.76
FC(Cl)(Cl)C(Cl)Cl	116	-82.6	–
ClCCCI	171	–	–
CNC(=O)CC(C)=O	–	–	ready biodegradability: readily biodegradable
FC(Cl)(Cl)Cl	23.7	-111	log10 Henry constant (atm·m³/mol): -1.01; log10 vapour pressure (mmHg): 2.9
